Data reported in PMC9846164, “Oral administration of VDAC1-derived small molecule peptides increases circulating testosterone levels in male rats” (Frontiers in Endocrinology, 2023).
“Also recorded” adds a separate entry of the source. Square brackets hold non-standard residues; d marks the D form. Peptide text beside a SMILES is read from it.

How the values were obtained:
Brown-Norway rats [1] = experiment: Oral gavage of peptides; plasma testosterone and corticosterone; type: in vivo, rat; conditions: ~10 µg/kg oral, 2 hrs after gavage
Experimental: All peptides were dissolved in molecular grade, sterile double distilled water to obtain a 1 mM stock solution and stored at -20°C. Peptides used for oral screenings were prepared from 1 mM peptide stock and diluted in sterile tap water in a total volume of 1 ml.
All samples were measured in duplicate according to each of the manufacturer’s instructions. Serum, plasma, or intratesticular fluid samples were diluted until controls fitted the middle of the standard curve used.

[2] = Oral pharmacokinetics after single oral dose; type: in vivo, rat; conditions: Brown-Norway, rat; single oral dose 10 mg peptide in 1 ml, fasted 4 hrs, jugular plasma 5-120 minutes, LC-MS/MS, N=4 in two rounds, Figure 4K; read-out: time to peak concentration in blood (converted)
Experimental: (§1) For all oral experiments, administration via gavage began between 8:30-8:50 am with a 3-minute delay between each rat. Animals used for pharmacokinetic studies were fasted for 4 hrs before starting gavage at 1 pm with a 3-minute delay between each rat.
(§2) For oral pharmacokinetic experiments, jugular blood samples were collected following a single oral dose of 10 mg peptide in 1 ml of vehicle after 5, 15, 30, 45, 60, 90, and 120 minutes. Protein inhibitor cocktail (ROCHE, cOmplete protease inhibitors, Cat# 11697498001), which was added into the EDTA collection tubes, was used for KVSQ and RVTQ peptides. Plasma was immediately extracted, and 100 μL of plasma were crashed with 300 µL of 100% methanol, spun at 14,000 RPM for 10 min, and the supernatant harvested. Re-extraction of the precipitant and solubilization of the pellet were as described above.
(§3) The analytical instrumentation consisted of a Thermo-Scientific ISQ Quantiva Triple Quadrupole Mass Spectrometer (QQQ), incorporating a heated electrospray ionization (HESI) source, and a Thermo-Scientific UltiMate™ 3000 UHPLC system (including, UltiMate™ 3000 RS autosampler). Analytical conditions were developed using a reference standard in a solution containing 5 µM of the corresponding peptide. The chromatography was resolved by isocratic elution of a binary solvent system incorporating (A) 0.1% Formic Acid (aq) and (B) ACN + 0.1% FA and using an Agilent Eclipse Plus™ C18 analytical column (100mm X 2.1mm ID, 1.8 µm particle). A 5µL injection volume and solvent flow rate of 150 µL/min were used. The MS/MS acquisition time was 7 min and total run time was 8.3 min/injection. The triple Quadrupole MS/MS instrumentation conditions were as follows: the HESI source voltage was 3200 V, the sheath gas […], auxilirary gas 20 L/min, sweep gas 2.0 L/min, the ion transfer temperature was 350°C, the vaporizer temperature was 350°C, the CID gas was 1.5 (mTorr) and the dwell time was 100 msec. The Q1 Resolution (FWHM) was 0.4 (unitless) and the Q3 resolution (FWHM) was 0.7 (unitless). […]

[3] = Peptide stability in plasma; type: in vitro ADME; conditions: 4 µM peptide (KVSQ 12.5 µM) in 100 µl Brown-Norway rat plasma, 37°C, 1-120 minutes, methanol crash, LC-MS/MS SRM, % of 1 min level, N=3 mean ± SEM, Figure 4J
Experimental: For peptide stability experiments, plasma from Brown-Norway rats aged 90-140 days was collected and stored at -20°C until further use. The plasma was thawed, spun at 12,000 RPM for 10 min, and kept at 4°C. 4 μM of the various peptides were incubated with 100 μL of plasma that was warmed at 37°C for 10 min before use. After 1, 15, 30, 60, 90 or 120 minutes, the plasma/peptide samples were crashed with 300 µL of 100% methanol, spun at 14,000 RPM for 10 min, and the supernatant collected. The methanol in the supernatant was evaporated and the samples were re-extracted. The final pellet was solubilized in 5 μL methanol followed by the addition of 100 μL of sterile double distilled water. The extracted samples were transferred to plastic tubes and placed in the autoloader of the mass spectrometer.
as §3, with “(unitless). The instrument ran in a selected reaction monitoring (SRM), positive ion detection mode at various collision energies (CE) for the following mass transitions:” for “(unitless).”

Brown-Norway rats [4] = experiment: Oral pharmacokinetics after single oral dose; type: in vivo, rat; conditions: single oral dose 10 mg in 1 ml; protease inhibitor cocktail in tubes for KVSQ and RVTQ; LC-MS/MS
Experimental: as §1, §2, §3

[5] = RdVTQ stability on storage (mass-spec area under the curve); type: physicochemical; conditions: fresh vs in distilled water at 37°C for 7 - 28 days, freeze/thaw, stored at -20°C; Figure 5F
Experimental: as §3, with “(unitless). The instrument ran in a selected reaction monitoring (SRM), positive ion detection mode at various collision energies (CE) for the following mass transitions:” for “(unitless).”

SMILES | half-life in plasma (rank order) [3] | other results
CC[C@@H](C)[C@@H](NC(=O)[C@H](CCCCN)NC(C)=O)C(=O)N[C@H](C(=O)N[C@@H](CCC(N)=O)C(N)=O)[C@@H](C)O [Ac-KdITQ-CONH2] (Ac-K[dI]TQ-NH2) |  | average testosterone levels at ~10 µg/kg (Brown-Norway rats [1]): increased, although not significantly
CC[C@H](C)[C@H](NC(=O)[C@H](CCCNC(=N)N)NC(C)=O)C(=O)N[C@H](C(=O)N[C@@H](CCC(N)=O)C(=O)N[C@H](CO)C(N)=O)[C@@H](C)O [Ac-RITQdS-CONH2] (Ac-RITQ[dS]-NH2) | Ac-RITQdS-CONH2 > RdVTQ > Ac-RdITQ-CONH2 > RITQ > RVTQ > KVSQ | Tmax [2]: ~15 min
CC[C@@H](C)[C@@H](NC(=O)[C@H](CCCNC(=N)N)NC(C)=O)C(=O)N[C@H](C(=O)N[C@@H](CCC(N)=O)C(N)=O)[C@@H](C)O [Ac-RdITQ-CONH2] (Ac-R[dI]TQ-NH2) | Ac-RITQdS-CONH2 > RdVTQ > Ac-RdITQ-CONH2 > RITQ > RVTQ > KVSQ | 
CC(C)[C@H](NC(=O)[C@@H](N)CCCCN)C(=O)N[C@@H](CO)C(=O)N[C@@H](CCC(N)=O)C(=O)O [KVSQ] (H-KVSQ-OH) | rapid degradation; also recorded: Ac-RITQdS-CONH2 > RdVTQ > Ac-RdITQ-CONH2 > RITQ > RVTQ > KVSQ | detection in rat plasma after oral dose (Brown-Norway rats [4]): not detected
CC[C@H](C)[C@H](NC(=O)[C@@H](N)CCCNC(=N)N)C(=O)N[C@H](C(=O)N[C@@H](CCC(N)=O)C(=O)O)[C@@H](C)O [RITQ] (H-RITQ-OH) | Ac-RITQdS-CONH2 > RdVTQ > Ac-RdITQ-CONH2 > RITQ > RVTQ > KVSQ | 
CC(C)[C@H](NC(=O)[C@@H](N)CCCNC(=N)N)C(=O)N[C@H](C(=O)N[C@@H](CCC(N)=O)C(=O)O)[C@@H](C)O [RVTQ] (H-RVTQ-OH) | Ac-RITQdS-CONH2 > RdVTQ > Ac-RdITQ-CONH2 > RITQ > RVTQ > KVSQ | detection in rat plasma after oral dose (Brown-Norway rats [4]): not detected
CC(C)[C@@H](NC(=O)[C@@H](N)CCCNC(=N)N)C(=O)N[C@H](C(=O)N[C@@H](CCC(N)=O)C(=O)O)[C@@H](C)O [RdVTQ] (H-R[dV]TQ-OH) | Ac-RITQdS-CONH2 > RdVTQ > Ac-RdITQ-CONH2 > RITQ > RVTQ > KVSQ | stability (area under the curve by mass-spec) [5]: highly stable
